Reference: PMC9747717, “A novel small molecule inhibitor of human Drp1” (Scientific Reports, 2022)
Several values for one entry are separate records, joined by “and”; a condition that tells them apart may be missing. Identical values can stand only once.

Tests used:
human Drp1 isoform 3 [1] = biological target: T1, human Drp1 isoform 3 (Homo sapiens, UniProt O00429); experiment: Surface plasmon resonance (SPR) binding; settings: human Drp1 isoform 3, 25 °C, 2% DMSO
T1 construct: His tag; made in house; host or cells: E. coli Rosetta (DE3), pET21b vector
T1 sequence (O00429 1-699 isoform O00429-4): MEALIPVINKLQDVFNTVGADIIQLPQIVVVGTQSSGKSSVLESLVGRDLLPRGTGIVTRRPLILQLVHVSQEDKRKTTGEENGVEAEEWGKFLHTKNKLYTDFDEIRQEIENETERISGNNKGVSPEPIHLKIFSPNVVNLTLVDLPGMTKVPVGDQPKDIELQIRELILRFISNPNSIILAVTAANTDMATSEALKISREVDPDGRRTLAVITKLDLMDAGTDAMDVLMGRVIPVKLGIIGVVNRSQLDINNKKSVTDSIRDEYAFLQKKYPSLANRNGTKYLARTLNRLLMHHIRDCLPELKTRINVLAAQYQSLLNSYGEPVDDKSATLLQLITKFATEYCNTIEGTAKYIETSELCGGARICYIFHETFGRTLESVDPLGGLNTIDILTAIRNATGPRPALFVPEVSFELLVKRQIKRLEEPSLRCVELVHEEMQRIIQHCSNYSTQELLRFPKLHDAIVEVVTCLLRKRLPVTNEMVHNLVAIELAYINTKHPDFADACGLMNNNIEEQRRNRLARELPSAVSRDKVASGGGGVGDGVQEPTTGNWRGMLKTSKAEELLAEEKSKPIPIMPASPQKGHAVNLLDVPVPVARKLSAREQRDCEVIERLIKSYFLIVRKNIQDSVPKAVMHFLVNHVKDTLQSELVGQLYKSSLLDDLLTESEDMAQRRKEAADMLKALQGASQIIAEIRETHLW
Protocol: The recombinant human Drp1 protein (His-tagged human Drp1 isoform 3, kindly provided by Professor Michael Ryan, Monash University, Australia) was generated as described previously. Briefly, cDNA for human Drp1 (isoform 3) was cloned into pET21b vector and transformed in Rosetta (DE3) competent cells (Novagen, MA, Merck Millipore). Transformed cells were propagated in Luria–Bertani broth and protein expression was initiated by the addition of 0.5 mM isopropyl β-D-1-thiogalactopyranoside. […]
All SPR experiments were performed on a Biacore T200 instrument (GE Healthcare Life Sciences, Uppsala, Sweden) at 25 °C in the presence of HEPES buffered saline containing 20 mM phosphate (pH 7.5), 137 mM NaCl, 2.7 mM KCl and 0.05% Tween-20 (HBS + P). […] Sensor surface was activated with 1:1 mixture of 0.4 M EDC and 0.1 M NHS for 7 min, followed by incremental injections of the protein to reach ~ 8000 RU (flow rate 10 μL/minute) for a calculated maximum analyte binding capacity (Rmax) of 30–50 RU. […]
Compounds were dissolved in 100% dimethyl sulfoxide (DMSO) and then added to HBS + P at a final DMSO concentration of 2%. […] SPR results were analysed using the Biacore T200 Evaluation Software v.1.

Drp1 KO MEFs = experiment: Mitochondrial morphology analysis in Drp1 KO MEF; assay type: cell-based, mouse; settings: Drp1 KO MEFs, 5, 10 or 50 µM
Protocol: Human foreskin fibroblasts and Drp1 wildtype and KO MEF (kindly provided by Professor Hiromi Sesaki, Johns Hopkins University, USA)[28],[29] were transduced with pAS2.EYFP.puro lentiviruses (RNAiCore, Academia Sinica, Taiwan) carrying the mitochondrial-targeted EGFP sequence as described in Kalkhoran et al.[30]. Cells were then treated with DRP1i27 (5, 10 or 50 µM) or 0.1% DMSO vehicle control for 24 h.
Mitochondrial morphology in HL-1 cells were visualised by immunostaining of mitochondrial Hsp60 antibody (Abcam, MA, USA). Images were acquired using Olympus BX60 fluorescence microscope at 600 × magnification and analysed using Fiji imaging software (ImageJ v1.53c). Cells were categorised into predominantly (> 50%) having fused or fragmented mitochondria. At least 100 cells were analysed for each treatment group.

[2] = Dynamic light scattering (DLS) compound aggregation threshold; assay type: physicochemical
Protocol: Identification of compound aggregation threshold was performed using DLS Zetasizer Nano ZS (Malvern Pananalytical, Worcestershire, UK). 100 µL of samples were measured in low-volume plastic micro cuvettes (BrandTech Scientific, CT, USA) at 25 °C using default size measurement settings. […] Mdivi-1 and DRP1i27 were serially diluted three-fold from 500 µM until the volume distribution of particle size was similar to that of the DMSO control. To specifically determine aggregation threshold, further dilution was carried out between concentrations where aggregation was first observed.

human Drp1 isoform 3 [3] = biological target: T1, human Drp1 isoform 3; experiment: Drp1 GTPase activity, colorimetric malachite green assay; assay type: biochemical
Protocol: The GTPase activity of Drp1, which is required for the latter to mediate mitochondrial fission, was examined using the colorimetric GTPase assay kit (Innova Biosciences, Cambridge, UK) according to the manufacturer’s instructions. Compounds were diluted in DMSO (all with a final concentration of 0.1% DMSO). Recombinant human Drp1 protein isoform-3 (final concentration 0.25 ng/µL) was diluted in assay buffer containing 50 mM Tris HCl (pH 7.5) and 2.5 mM MgCl2, followed by incubation with compounds for 15 min at 37 °C in a 96 well plate. 0.5 mM GTP, diluted in assay buffer, was then added into the mixture followed by incubation at 37 °C for 30 min.
Upon binding to Drp1, GTP is hydrolysed into GDP and free phosphate (Pi)[24]. Therefore, the degree of GTPase inhibition was assessed by measuring the concentration of Pi released into the assay buffer, which is detected by a malachite green-based dye. The intensity of Pi-dye complex was assessed by measuring the light absorbance at 635 nm wavelength using a microplate reader (BenchMark Plus, MS, USA). Absorbance of each experimental group was normalised to the vehicle control (DMSO).

Q: What does the source list for `Cc1nc[nH]c1CN1C[C@@H]2CC[C@H](C1)N(Cc1ccc(-c3cc[nH]n3)o1)C2` [DRP1i27]?
A: Kd (human Drp1 isoform 3 [1]): 286 µM and 287 µM; cellular networks of mitochondria (Drp1 KO MEFs): no significant effect; aggregation threshold ([2]; PBS, 2% DMSO): 130 µM; aggregation threshold ([2]; PBS, 5% DMSO): 350 µM; aggregation threshold ([2]; with 0.05% Tween-20, DMSO content not specified): at least 500 µM; inhibition of GTPase activity of human Drp1 (human Drp1 isoform 3 [3]; 5 µM): statistically significant reduction; inhibition of the conversion of GTP to GDP (human Drp1 isoform 3 [3]; 5–50 µM): trend of inhibition
